Source: US20140323418A1, “SELECTIVE KINASE INHIBITORS” (PORTOLA PHARMACEUTICALS, INC., priority 2011, published 2014)

molecular target: T1, full length active recombinant SYK enzyme (Homo sapiens, UniProt P43405); assay: Inhibition of Syk tyrosine phosphorylation activity (LANCE TR-FRET kinase assay); format: biochemical; conditions: 1 nM SYK, 550 nM substrate, 100 μM ATP, 1 hour room temperature
T1 construct: full length active recombinant SYK enzyme (Millipore, Calif.); purchased Millipore

IC50 | Structure (SMILES)
10 to 100 nM | NC(=O)c1cnc(N[C@@H]2CCCC(F)(F)[C@@H]2N)nc1Nc1ccc2ncsc2c1 [Example 29, 2-(((1R,2R)-2-amino-3,3-difluorocyclohexyl)amino)-4-(benzo[d]thiazol-6-ylamino)pyrimidine-5-carboxamide]
100 to 1000 nM | NC(=O)c1cnc(N[C@@H]2CCCC(F)(F)[C@@H]2N)nc1Nc1ccc2scnc2c1 [Example 30, 2-(((1R,2R)-2-amino-3,3-difluorocyclohexyl)amino)-4-(benzo[d]thiazol-5-ylamino)pyrimidine-5-carboxamide]
10 to 100 nM | NC(=O)c1cnc(N[C@@H]2CCCC(F)(F)[C@@H]2N)nc1Nc1csc2ncccc12 [Example 31, 2-(((1R,2R)-2-amino-3,3-difluorocyclohexyl)amino)-4-(thieno[2,3-b]pyridin-3-ylamino)pyrimidine-5-carboxamide]
100 to 1000 nM | Cc1cc(C)cc(Nc2nc(N[C@@H]3CCCC(F)(F)[C@@H]3N)ncc2C(N)=O)c1 [Example 33, 2-(((1R,2R)-2-amino-3,3-difluorocyclohexyl)amino)-4-((3,5-dimethylphenyl)amino)pyrimidine-5-carboxamide]
1 to 10 nM | NC(=O)c1cnc(N[C@H]2[C@@H](N)CCCC2(F)F)nc1Nc1cccc(-n2cccn2)c1 [Example 34, 4-((3-(1H-pyrazol-1-yl)phenyl)amino)-2-(((1S,6S)-6-amino-2,2-difluorocyclohexyl)amino)pyrimidine-5-carboxamide]
10 to 100 nM | NC(=O)c1cnc(N[C@H]2[C@@H](N)CCCC2(F)F)nc1Nc1cccc(-c2ncccn2)c1 [Example 35, 2-(((1S,6S)-6-amino-2,2-difluorocyclohexyl)amino)-4-((3-(pyrimidin-2-yl)phenyl)amino)pyrimidine-5-carboxamide]
10 to 100 nM | NC(=O)c1cnc(N[C@H]2[C@@H](N)CCCC2(F)F)nc1Nc1csc2ncccc12 [Example 36, 2-(((1S,6S)-6-amino-2,2-difluorocyclohexyl)amino)-4-(thieno[2,3-b]pyridin-3-ylamino)pyrimidine-5-carboxamide]
10 to 100 nM | NC(=O)c1cnc(N[C@H]2[C@@H](N)CCCC2(F)F)nc1Nc1cnn2ccccc12 [Example 37, 2-(((1S,6S)-6-amino-2,2-difluorocyclohexyl)amino)-4-(pyrazolo[1,5-a]pyridin-3-ylamino)pyrimidine-5-carboxamide]
10 to 100 nM | Cc1ccc(Nc2nc(N[C@H]3[C@@H](N)CCCC3(F)F)ncc2C(N)=O)cc1 [Example 38, 2-(((1S,6S)-6-amino-2,2-difluorocyclohexyl)amino)-4-(p-tolylamino)pyrimidine-5-carboxamide]
10 to 100 nM | Cc1cccc(Nc2nc(N[C@H]3[C@@H](N)CCCC3(F)F)ncc2C(N)=O)c1 [Example 39, 2-(((1S,6S)-6-amino-2,2-difluorocyclohexyl)amino)-4-(m-tolylamino)pyrimidine-5-carboxamide]
1 to 10 nM | NC(=O)c1cnc(N[C@@H]2CCCC[C@@H]2N)nc1Nc1cnn2ccccc12 [Example 43, 2-(((1R,2S)-2-aminocyclohexyl)amino)-4-(pyrazolo[1,5-a]pyridin-3-ylamino)pyrimidine-5-carboxamide]
1 to 10 nM | NC(=O)c1cnc(N[C@@H]2CCCC[C@@H]2N)nc1Nc1csc2ncccc12 [Example 44, 2-(((1R,2S)-2-aminocyclohexyl)amino)-4-(thieno[2,3-b]pyridin-3-ylamino)pyrimidine-5-carboxamide]
10 to 100 nM | NC(=O)c1cnc(N[C@@H]2CCCC[C@@H]2N)nc1Nc1cncc(F)c1 [Example 45]
10 to 100 nM | Cc1cncc(Nc2nc(N[C@@H]3CCCC[C@@H]3N)ncc2C(N)=O)c1 [Example 46, 2-(((1R,2S)-2-aminocyclohexyl)amino)-4-((5-methylpyridin-3-yl)amino)pyrimidine-5-carboxamide]
10 to 100 nM | COc1cncc(Nc2nc(N[C@@H]3CCCC[C@@H]3N)ncc2C(N)=O)c1 [Example 47, 2-(((1R,2S)-2-aminocyclohexyl)amino)-4-((5-methoxypyridin-3-yl)amino)pyrimidine-5-carboxamide]
10 to 100 nM | NC(=O)c1cnc(N[C@@H]2CCCC[C@@H]2N)nc1Nc1cncc(-n2cccn2)c1 [Example 48, 4-((5-(1H-pyrazol-1-yl)pyridin-3-yl)amino)-2-(((1R,2S)-2-aminocyclohexyl)amino)pyrimidine-5-carboxamide]
1 to 10 nM | Cc1cc(Nc2nc(N[C@@H]3CCCC[C@@H]3N)ncc2C(N)=O)sn1 [Example 49, 2-(((1R,2S)-2-aminocyclohexyl)amino)-4-((3-methylisothiazol-5-yl)amino)pyrimidine-5-carboxamide]
10 to 100 nM | NC(=O)c1cnc(N[C@@H]2CCOC[C@@H]2N)nc1Nc1cccc(Cl)c1 [Example 50, 2-(((3R,4R)-3-aminotetrahydro-2H-pyran-4-yl)amino)-4-((3-chlorophenyl)amino)pyrimidine-5-carboxamide]

IC50 | Structure (SMILES)
10 to 100 nM | NC(=O)c1cnc(N[C@@H]2CCOC[C@@H]2N)nc1Nc1ccc(Cl)cc1 [Example 51, 2-(((3R,4R)-3-aminotetrahydro-2H-pyran-4-yl)amino)-4-((4-chlorophenyl)amino)pyrimidine-5-carboxamide]
100 to 1000 nM | NC(=O)c1cnc(N[C@@H]2CCOC[C@@H]2N)nc1Nc1ccccc1 [Example 52, 2-(((3R,4R)-3-aminotetrahydro-2H-pyran-4-yl)amino)-4-(phenylamino)pyrimidine-5-carboxamide]
10 to 100 nM | N#Cc1cccc(Nc2nc(N[C@@H]3CCOC[C@@H]3N)ncc2C(N)=O)c1 [Example 53, 2-(((3R,4R)-3-aminotetrahydro-2H-pyran-4-yl)amino)-4-((3-cyanophenyl)amino)pyrimidine-5-carboxamide]
100 to 1000 nM | N#Cc1ccc(Nc2nc(N[C@@H]3CCOC[C@@H]3N)ncc2C(N)=O)cc1 [Example 54, 2-(((3R,4R)-3-aminotetrahydro-2H-pyran-4-yl)amino)-4-((4-cyanophenyl)amino)pyrimidine-5-carboxamide]
10 to 100 nM | CC[C@@H](Nc1ncc(C(N)=O)c(Nc2csc3ncccc23)n1)C(N)=O [Example 55, (R)-2-((1-amino-1-oxobutan-2-yl)amino)-4-(thieno[2,3-b]pyridin-3-ylamino)pyrimidine-5-carboxamide]
10 to 100 nM | CC[C@@H](Nc1ncc(C(N)=O)c(Nc2cnn3ccccc23)n1)C(N)=O [Example 56, (R)-2-((1-amino-1-oxobutan-2-yl)amino)-4-(pyrazolo[1,5-a]pyridin-3-ylamino)pyrimidine-5-carboxamide]
10 to 100 nM | CC[C@@H](Nc1ncc(C(N)=O)c(Nc2ccc3cccnc3c2)n1)C(N)=O [Example 57, (R)-2-((1-amino-1-oxobutan-2-yl)amino)-4-(quinolin-7-ylamino)pyrimidine-5-carboxamide]
10 to 100 nM | CC[C@@H](Nc1ncc(C(N)=O)c(Nc2ccc(-c3cncs3)cc2)n1)C(N)=O [Example 58, (R)-2-((1-amino-1-oxobutan-2-yl)amino)-4-((4-(thiazol-5-yl)phenyl)amino)pyrimidine-5-carboxamide]
10 to 100 nM | CC[C@@H](Nc1ncc(C(N)=O)c(Nc2ccc(-c3cnns3)cc2)n1)C(N)=O [Example 59, (R)-4-((4-(1,2,3-thiadiazol-5-yl)phenyl)amino)-2-((1-amino-1-oxobutan-2-yl)amino)pyrimidine-5-carboxamide]
100 to 1000 nM | CC[C@@H](Nc1ncc(C(N)=O)c(Nc2cccc(OC)c2)n1)C(N)=O [Example 60, (R)-2-((1-amino-1-oxobutan-2-yl)amino)-4-((3-methoxyphenyl)amino)pyrimidine-5-carboxamide]
100 to 1000 nM | CCC[C@@H](Nc1ncc(C(N)=O)c(Nc2cccc(OC)c2)n1)C(N)=O [Example 61, (R)-2-((1-amino-1-oxopentan-2-yl)amino)-4-((3-methoxyphenyl)amino)pyrimidine-5-carboxamide]
10 to 100 nM | COc1cccc(Nc2nc(N[C@H](CC(C)C)C(N)=O)ncc2C(N)=O)c1 [Example 62, (R)-2-((1-amino-4-methyl-1-oxopentan-2-yl)amino)-4-((3-methoxyphenyl)amino)pyrimidine-5-carboxamide]
100 to 1000 nM | COc1cccc(Nc2nc(N[C@H](CC3CC3)C(N)=O)ncc2C(N)=O)c1 [Example 63, (R)-2-((1-amino-3-cyclopropyl-1-oxopropan-2-yl)amino)-4-((3-methoxyphenyl)amino)pyrimidine-5-carboxamide]
100 to 1000 nM | COc1cccc(Nc2nc(N[C@@H](C(N)=O)C3CC3)ncc2C(N)=O)c1 [Example 64, (R)-2-((2-amino-1-cyclopropyl-2-oxoethyl)amino)-4-((3-methoxyphenyl)amino)pyrimidine-5-carboxamide]
10 to 100 nM | CC[C@@H](Nc1ncc(C(N)=O)c(Nc2cc(C)ns2)n1)C(N)=O [Example 65, (R)-2-((1-amino-1-oxobutan-2-yl)amino)-4-((3-methylisothiazol-5-yl)amino)pyrimidine-5-carboxamide]
10 to 100 nM | CC[C@@H](Nc1ncc(C(N)=O)c(Nc2cnc3ccccc3c2)n1)C(N)=O [Example 68, (R)-2-(1-amino-1-oxobutan-2-ylamino)-4-(quinolin-3-ylamino)pyrimidine-5-carboxamide]
10 to 100 nM | CC(C)[C@@H](Nc1ncc(C(N)=O)c(Nc2ccc3ncccc3c2)n1)C(N)=O [Example 69, (R)-2-(1-amino-3-methyl-1-oxobutan-2-ylamino)-4-(quinolin-6-ylamino)pyrimidine-5-carboxamide]
100 to 1000 nM | CC(C)[C@@H](Nc1ncc(C(N)=O)c(Nc2ccc3c(ccc[n+]3[O-])c2)n1)C(N)=O [Example 70, (R)-2-(1-amino-3-methyl-1-oxobutan-2-ylamino)-4-(quinolin-6-ylamino)pyrimidine-5-carboxamide N-oxide]
